Results: PubChem BioAssay AID1963842 (Molecular Pharmacology Branch, DTP, NCI, 2024)
Values joined by “and” are separate entries in the source; they are usually repeats but may differ in a detail not shown here. Equal entries are not always repeated.

Test system: 677734-321-R-J1-PDC complex spheroid viability
Test: Anticancer human tumor 677734-321-R-J1-PDC patient-derived soft tissue sarcoma cell line growth inhibition [POLQ]
Details: for viability, T/C: stronger effect = lower value; for IC50: curve of compound
Description: Multicellular complex tumor spheroid response to Polymerase (POL) inhibitors (novobiocin, ART-558, RP6685) in combination with a variety of drugs and investigational agents in selected tumor cell lines
The POL inhibitors (novobiocin, ART-558, and RP6685) were evaluated both individually and in combination with standard of care and investigational anticancer small molecules within a complex spheroid model of solid tumors. . Complex spheroids include a stromal component modeled by human endothelial cells (HUVEC) and fibroblasts modeled by human mesenchymal stem cells (MSCs). The concentration ranges selected for each drug and investigational agent were based upon clinically achievable concentrations if the clinical Cmax of the agent was known.
Compounds. The drugs and investigational agents: novobiocin (NSC847541), ART-558 (NSC835418), RP-6685 (NSC848927), peposertib (NSC802822), ceralasertib (NSC780249), elimusertib (NSC800525), camonsertib (NSC841442), AZD-1390 (NSC803789), olaparib (NSC753686), talazoparib (NSC767125), rucaparib (NSC756644), sotorasib (NSC818433), MRTX-1133 (NSC836407), SN-38 (NSC673596), topotecan (NSC609699), epotoside (NSC141540), doxorubicin (NSC123127), gemcitabine (NSC613327), 5-fluorouracil (NSC19893), paclitaxel (NSC125973), vemurafenib (NSC761431), MSA-2 (NSC828583), SN-011 (NSC837082), adavosertib (NSC754352), prexasertib (NSC758257), carboplatin (NSC241240) and oxaliplatin (NSC266046), were obtained from the National Cancer Institute (NCI) Developmental Therapeutics Program Chemical Repository (21). The FDA-approved anticancer drug set is available from the Developmental Therapeutics Program at https://dtp.cancer.gov/organization/dscb/obtaining/. […] The stock solutions were prepared in dimethyl sulfoxide (DMSO, Sigma-Aldrich, St. Louis, MO, cat. D2650), except for the platinum compounds which were prepared in saline (Quality Biological, Gaithersburg, MD, cat. 114-055-101), at 800-fold the tested concentration and stored at -70 degrees C prior to their use. All drugs and investigational agents were tested over a range starting from a high concentration at or near the clinical Cmax and decreasing in half-log increments. If the clinical Cmax for an agent had not been determined, the highest concentration tested was 10 microM, except for SN-38, which was tested at a high concentration of 1 microM.
Cell Culture. All cells were maintained in an incubator at 37 degrees C and 5% CO2 with 95% humidity. The PDC lines were cultured according to standard operating procedures established by the NCI PDMR (https://pdmr.cancer.gov). Table 3 of the manuscript, lists the cell lines along with the number of the three cell types plated to form the mct-spheroids and media for tumor cell growth. After thawing, all PDC lines, except 997537-175-T-J1-PDC and 415267-285-R-J2-PDC, were cultured in Matrigel-coated flasks prepared with a working solution of 1X Ham's F-12 nutrient mix, without supplementation (Thermo Fisher Scientific, cat. 11765054), 100 U/mL penicillin-streptomycin (Thermo Fisher Scientific, cat. 15140122), and 2.5% Matrigel (Corning Inc., Corning, NY, cat. 354248) for the first three passages. The two PDC lines 997537-175-T-J1-PDC and 415267-285-R-J2-PDC were cultured on uncoated flasks. The 857933-349-R-J2-PDC line was cultured in 6C/Colon 1B media containing advanced DMEM/F-12 (Thermo Fisher Scientific, cat. 12634028), 10 mM HEPES (Thermo Fisher Scientific, cat. 15630080), 1X GlutaMAX supplement (Thermo Fisher Scientific, cat. 35050061), 0.1 mg/mL primocin (InvivoGen, San Diego, CA, cat. ant-pm-2), 10% defined fetal bovine serum, heat inactivated (HyClone Laboratories Inc., Logan, UT, cat. SH30070.03HI), 50% L-WRN conditioned media (ATCC, cat. CRL-3276), 1.25 mM N-Acetyl-L-cysteine (Sigma-Aldrich, cat. A9165), 10 mM nicotinamide (Sigma-Aldrich, cat. N0636), 1X B-27 supplement (Thermo Fisher Scientific, cat. 17504044), 1X N-2 supplement (Thermo Fisher Scientific, cat. […]
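Also: spheroids exposed to compounds for one week.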
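For viability, T/C in this document: 100% = vehicle DMSO treated spheroids.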

Compound | viability, T/C (compound 0.0316 µM) | viability, T/C (compound 0.1 µM) | viability, T/C (compound 0.316 µM) | viability, T/C (compound 1 µM) | viability, T/C (compound 3.16 µM) | viability, T/C (compound 10 µM) | IC50 | viability, T/C (compound 0.00316 µM) | viability, T/C (compound 0.01 µM) | viability, T/C (compound 0.00949 µM) | viability, T/C (compound 0.03 µM) | viability, T/C (compound 0.0949 µM) | viability, T/C (compound 0.3 µM) | viability, T/C (compound 0.949 µM) | viability, T/C (compound 3 µM) | viability, T/C (compound 0.000316 µM) | viability, T/C (compound 0.001 µM)
C#Cc1c(F)ccc2cc(O)cc(-c3ncc4c(N5CC6CCC(C5)N6)nc(OCC56CCCN5CC(F)C6)nc4c3F)c12 (centres undefined) | 109% and 110% and 105% | 105% and 104% and 101% | 99.2% and 115% and 96.7% | 105% and 96.8% and 101% | 107% and 113% and 97.8% | 102% (2×) and 80.7% | > 10 µM | – | – | – | – | – | – | – | – | – | –
C=CC(=O)N1CCN(c2nc(=O)n(-c3c(C)ccnc3C(C)C)c3nc(-c4c(O)cccc4F)c(F)cc23)C(C)C1 (centres undefined) | 100% and 109% and 106% | 95.8% and 94.2% and 95.4% | 117% and 96.4% and 105% | 101% and 104% and 95.6% | 96.5% and 93.2% and 101% | 89% and 64% and 94.1% | > 10 µM | – | – | – | – | – | – | – | – | – | –
C=CCn1c(=O)c2cnc(Nc3ccc(N4CCN(C)CC4)cc3)nc2n1-c1cccc(C(C)(C)O)n1 | 105% and 97.8% and 107% | 103% and 90.1% and 87.8% | 103% and 74.6% and 85.4% | 64.8% and 36% and 39% | – | – | > 1 µM and 0.657 µM and 0.753 µM | 109% and 100% and 106% | 115% and 89.1% and 99% | – | – | – | – | – | – | – | –
CC(=O)O[C@H]1C(=O)[C@@]2(C)[C@H]([C@H](OC(=O)c3ccccc3)[C@]3(O)C[C@H](OC(=O)[C@H](O)[C@@H](NC(=O)c4ccccc4)c4ccccc4)C(C)=C1C3(C)C)[C@]1(OC(C)=O)CO[C@@H]1C[C@@H]2O | – | – | – | – | – | – | < 0.00949 µM | – | – | 22% and 35.2% and 37.8% | 13.4% and 15.2% and 19.2% | 12.7% and 15.9% and 17.6% | 11.9% and 12.5% and 14.8% | 14.2% and 12.4% and 14.5% | 13.1% and 16.4% (2×) | – | –
CC(C)n1c(=O)n(C)c2cnc3cc(F)c(-c4ccc(OCCCN5CCCCC5)nc4)cc3c21 | 104% and 96.1% and 15.7% | 97.3% and 81.5% and 19.8% | 111% and 83.6% and 12.2% | 99.2% and 101% and 14.6% | 101% and 85.8% and 17.6% | 91% and 102% and 18.9% | – | – | – | – | – | – | – | – | – | – | –
CC1COCCN1c1cc(-c2ccnn2C)c2ccnc(-c3ccn[nH]3)c2n1 (centres undefined) | 91.4% and 85.5% and 69.4% | 60.5% and 56.2% and 22.1% | – | 24.4% and 21.4% and 10.8% | 19.7% and 6.39% and 9.44% | 18.5% and 17.1% and 9.19% | 0.164 µM and 0.124 µM and 0.0506 µM | – | – | – | – | – | – | – | – | – | –
CC1COCCN1c1cc(C2(O)CC3CCC(C2)O3)c2cnn(-c3ccn[nH]3)c2n1 (centres undefined) | 81.7% and 83.6% and 51% | 51.1% and 44.5% and 17.5% | 25.6% and 22.2% and 9.65% | 20.1% and 15.7% and 9.53% | 17.1% and 14.3% and 7.61% | 17.9% and 14.2% and 4.79% | 0.105 µM and 0.0851 µM and 0.0324 µM | – | – | – | – | – | – | – | – | – | –
CC1COCCN1c1cc(C2(S(C)(=N)=O)CC2)nc(-c2ccnc3[nH]ccc23)n1 (centres undefined) | 109% and 103% and 113% | 97.4% and 99.3% and 104% | 92% and 80.2% and 107% | 86.7% and 51.1% and 86.6% | 60.8% and 28.3% and 55.8% | 21.6% and 9.59% and 22.4% | 4.39 µM and 1.13 µM and 3.83 µM | – | – | – | – | – | – | – | – | – | –
CCCS(=O)(=O)Nc1ccc(F)c(C(=O)c2c[nH]c3ncc(-c4ccc(Cl)cc4)cc23)c1F | 109% and 98.3% and 104% | 98% (2×) and 103% | 90.9% and 101% and 108% | 97.4% and 115% and 111% | 71.8% and 98.3% and 112% | 4.28% and 6.33% and 14.5% | 4.61 µM and 5.8 µM and 6.45 µM | – | – | – | – | – | – | – | – | – | –
CC[C@@]1(O)C(=O)OCc2c1cc1n(c2=O)Cc2cc3c(CN(C)C)c(O)ccc3nc2-1 | 46.4% and 25.9% and 36.8% | 18% and 13.8% and 15% | – | – | – | – | 0.0292 µM and 0.0194 µM and 0.0248 µM | 105% and 100% and 109% | 98.2% and 82.6% and 99.5% | – | – | – | – | – | – | 104% (2×) and 105% | 111% and 90.9% and 101%
CCc1c2c(nc3ccc(O)cc13)-c1cc3c(c(=O)n1C2)COC(=O)[C@]3(O)CC | 5.51% and 5.68% and 5.45% | 3.41% and 4.83% and 3.66% | 1.89% and 3.99% | 1.68% and 1.7% and 1.87% | – | – | < 0.00316 µM | 29.6% and 21.7% and 23.7% | 13.3% and 10.5% and 14.2% | – | – | – | – | – | – | – | –
CCc1cc2c(N3CCc4c(cc(Cn5ccnc5)cc4-c4cn(C)nc4C(F)(F)F)C3=O)cc(C)nc2c(OC)n1 | 108% and 84.9% and 95.3% | 104% and 93.7% and 115% | 100% and 83.8% and 86.7% | 85.4% and 79.7% and 96.4% | 76.5% and 55.1% and 70.1% | 56.7% and 37.7% and 41.4% | > 10 µM and 4.46 µM and 7.11 µM | – | – | – | – | – | – | – | – | – | –
CCc1cc2c(N3CCc4c(cc(Cn5ccnc5)cc4-c4cn(C)nc4C(F)(F)F)C3=O)ccnc2c(OC)n1 | 108% and 98.5% and 105% | 109% (2×) and 102% | 98% and 85.5% and 106% | 100% and 93.7% and 73.7% | 92.4% and 69% and 64.4% | 63.6% and 50.2% and 39.2% | > 10 µM and 5.58 µM | – | – | – | – | – | – | – | – | – | –
